Laboratory results: publication PMC11602115 (Journal of Medicinal Chemistry, 2017)

How the values were obtained:
EP3v6 = target: T1, EP3v6 (Homo sapiens, UniProt P43115); assay: Melanophore dispersion assay, EP3v6; assay type: cell-based; set-up: expressed in transfected cells; host or cells: melanophores (transient, electroporation); conditions: for EC50 / EP3v6 % I.A: melanophore dispersion assay (Gi); for behaviour at EP3 in melanophore platform: potencies similar to binding affinities
T1 sequence (P43115 1-374 isoform P43115-4): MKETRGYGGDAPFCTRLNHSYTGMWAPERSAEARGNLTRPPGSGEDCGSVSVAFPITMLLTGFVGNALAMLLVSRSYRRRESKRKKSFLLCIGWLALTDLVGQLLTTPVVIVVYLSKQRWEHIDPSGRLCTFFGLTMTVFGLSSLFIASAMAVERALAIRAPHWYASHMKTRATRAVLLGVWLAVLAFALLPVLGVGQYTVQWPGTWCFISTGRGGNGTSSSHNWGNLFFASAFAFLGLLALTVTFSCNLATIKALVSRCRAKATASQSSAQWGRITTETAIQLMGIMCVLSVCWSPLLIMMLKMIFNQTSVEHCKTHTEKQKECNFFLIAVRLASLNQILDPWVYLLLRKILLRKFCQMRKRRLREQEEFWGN
Experimental: For the EP3v6 receptor functional assay, melanophores were transfected by electroporation using 20 μg of recombinant human EP3v6 receptor plasmid DNA per 400 μL of cell suspension. Transfected cells were immediately resuspended in fresh growth medium and plated in 384-well clear, polystyrene microplates. Plated cells were incubated at 27 °C for 48 h after transfection in order to achieve optimal receptor expression. To perform the assay, growth medium was removed from the assay plates and replaced with assay buffer (40 μL/well, 0.7× PBS, pH 7.3, supplemented with 20 nM melatonin to induce pigment aggregation). Following a 90 min incubation at room temperature, a 650 nm absorbance reading was collected and test compounds (10 μL per well) were transferred to the assay plates. Plates were incubated for 90 min at room temperature to allow compound-induced pigment redistribution to take place, and final absorbance reading was then collected. Test compounds were solubilized and serially diluted in DMSO, using 5-fold dilutions, to generate a 10-point dose–response curve with a top concentration of 10 μM (final assay concentration). Samples were then further diluted in assay buffer to achieve a 5× stock prior to addition to the assay plates. A SpectraMax absorbance plate reader (Molecular Devices, Inc.) was used for data collection.
Table Sup2: Data with some comparator compounds in functional assays. […]

CYP 2C8 = CYP 2C8 (Homo sapiens, UniProt P10632); assay: Cytochrome P450 inhibition, CYP2C8; assay type: in vitro ADME
95 GPCR profile = assay: Wider binding screen (95 GPCR profile, MDS Pharma); conditions: 95 GPCR profile (MDS Pharma Inc.)
From the text: [15] 95 GPCR profile (MDS Pharma Inc.).

[1] = Stability in rat microsome preparations; assay type: in vitro ADME; conditions: incubation at 37 °C, rat microsomes; read-out: rat MS, T1/2
From the text: (§1) Table 1 Screening Data for Selected Analogues ^a | column: human and rat MS, T1/2 (min) ^g

IP = IP (Homo sapiens, UniProt P43119); assay: Recombinant human IP receptor cAMP assay after elimination of receptor reserve (transient CHO); assay type: cell-based; set-up: expressed in transfected cells; conditions: following elimination of receptor reserve
From the text: Additional In Vitro Assays
To determine the potency and efficacy of compounds in cAMP assays in the absence of receptor reserve effects, the cDNA sequence of the human IP receptor was subqcloned into an expression plasmid containing a ubiquitin promoter in place of the more commonly used CMV promoter. The ubiquitin […]
level of receptor expression after transfection into a suitable cell line. This plasmid was transiently transfected into CHO cells using lipofectamine, following standard protocols. The quantity of transfected plasmid DNA was titrated down from 16 µg to 1 ng per transfection using empty vector as carrier DNA.

hERG channel = hERG channel (Homo sapiens, UniProt Q12809); assay: hERG patch clamp assay; assay type: cell-based; conditions: read-out: IC50 hERG channel functional activity
[2] = Stability in human microsome preparations; assay type: in vitro ADME; conditions: incubation at 37 °C, human microsomes; read-out: human MS, T1/2
From the text: as §1

rat IP = rat IP (Rattus norvegicus, UniProt P43253); assay: Radioligand binding, rat IP ([3H]-iloprost); set-up: expressed in transfected cells; host or cells: CHO-K1 (crude membranes)
Experimental: (§2) CHO-K1 cells expressing recombinant IP receptors were harvested, washed with ice-cold phosphate buffered saline, pH 7.4 (PBS), and then centrifuged at 48 000g for 20 min at 4 °C. The resulting cell pellet was then resuspended in ice-cold PBS containing 20 mM HEPES, pH 7.4, and 0.1 mM EDTA, homogenized on ice using a Brinkman Polytron, and centrifuged (48 000g for 20 min at 4 °C). This resuspension and centrifugation process was repeated one further time. Crude membrane pellets were stored at −80 °C until used for radioligand binding assays.
(§3) Assay incubations were terminated by rapid filtration through PerkinElmer GF/C filtration plates pretreated with 0.3% PEI, under vacuum pressure using a 96-well Packard filtration apparatus, followed by multiple washes with ice-cold wash buffer (PBS containing 20 mM HEPES and 0.1 mM EDTA, pH 7.4). Plates were then dried at 45 °C for a minimum of 2 h. Finally, 25 μL of BetaScint scintillation cocktail was added to each well and plates were counted in a Packard TopCount scintillation counter. In each competition study, test compounds were dosed at 10 concentrations with triplicate determinations at each test concentration. A reference compound, typically iloprost, was included in every runset for quality control purposes.

monkey IP = assay: Radioligand binding, monkey IP ([3H]-iloprost)
Experimental: as §2
as §3, with “concentration.” for “concentration. A reference compound, typically iloprost, was included in every runset for quality control purposes.”

Chain of rat IP (P43253 whole entry): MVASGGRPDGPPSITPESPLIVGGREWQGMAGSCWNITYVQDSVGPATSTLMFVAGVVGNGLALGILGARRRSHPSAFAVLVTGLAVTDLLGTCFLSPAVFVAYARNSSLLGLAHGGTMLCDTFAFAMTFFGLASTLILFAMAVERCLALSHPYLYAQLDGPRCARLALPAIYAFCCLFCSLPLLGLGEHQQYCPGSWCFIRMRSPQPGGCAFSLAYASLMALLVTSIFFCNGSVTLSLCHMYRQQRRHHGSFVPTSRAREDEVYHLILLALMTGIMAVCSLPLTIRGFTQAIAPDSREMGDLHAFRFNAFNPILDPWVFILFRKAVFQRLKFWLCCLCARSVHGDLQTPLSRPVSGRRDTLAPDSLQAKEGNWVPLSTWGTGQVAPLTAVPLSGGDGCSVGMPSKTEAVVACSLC
Chain of hERG channel (Q12809 whole entry): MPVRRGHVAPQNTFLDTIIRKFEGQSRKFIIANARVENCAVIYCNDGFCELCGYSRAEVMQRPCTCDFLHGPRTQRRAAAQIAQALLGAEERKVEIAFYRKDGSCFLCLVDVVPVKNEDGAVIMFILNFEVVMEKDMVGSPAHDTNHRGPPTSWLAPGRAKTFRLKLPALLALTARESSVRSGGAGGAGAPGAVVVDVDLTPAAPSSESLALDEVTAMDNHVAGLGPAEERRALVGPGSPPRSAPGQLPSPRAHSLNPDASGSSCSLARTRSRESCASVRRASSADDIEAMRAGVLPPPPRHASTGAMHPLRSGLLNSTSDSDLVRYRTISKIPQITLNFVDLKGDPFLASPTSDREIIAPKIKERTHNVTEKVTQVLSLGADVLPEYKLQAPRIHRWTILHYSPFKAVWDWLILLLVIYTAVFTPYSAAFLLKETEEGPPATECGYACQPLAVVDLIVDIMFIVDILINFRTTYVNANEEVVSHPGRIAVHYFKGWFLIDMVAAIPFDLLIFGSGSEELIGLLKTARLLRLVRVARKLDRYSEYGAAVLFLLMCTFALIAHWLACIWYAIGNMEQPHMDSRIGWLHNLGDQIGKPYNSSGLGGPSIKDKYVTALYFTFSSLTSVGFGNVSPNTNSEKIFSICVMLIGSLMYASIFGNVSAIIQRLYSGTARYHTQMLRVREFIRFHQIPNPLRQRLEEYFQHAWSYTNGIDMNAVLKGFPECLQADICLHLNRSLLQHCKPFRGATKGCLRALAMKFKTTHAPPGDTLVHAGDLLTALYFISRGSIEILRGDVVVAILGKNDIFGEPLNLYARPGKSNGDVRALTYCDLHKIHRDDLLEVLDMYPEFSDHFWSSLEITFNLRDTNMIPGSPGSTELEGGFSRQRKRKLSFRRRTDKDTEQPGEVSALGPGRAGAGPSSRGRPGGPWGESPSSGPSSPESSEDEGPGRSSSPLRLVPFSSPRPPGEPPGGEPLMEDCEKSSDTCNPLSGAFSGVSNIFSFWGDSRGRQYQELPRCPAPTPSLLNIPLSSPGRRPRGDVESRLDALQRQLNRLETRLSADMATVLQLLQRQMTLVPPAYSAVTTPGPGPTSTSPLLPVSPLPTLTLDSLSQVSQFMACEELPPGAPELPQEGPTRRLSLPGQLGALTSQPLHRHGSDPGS
Chain of CYP 2C8 (P10632 whole entry): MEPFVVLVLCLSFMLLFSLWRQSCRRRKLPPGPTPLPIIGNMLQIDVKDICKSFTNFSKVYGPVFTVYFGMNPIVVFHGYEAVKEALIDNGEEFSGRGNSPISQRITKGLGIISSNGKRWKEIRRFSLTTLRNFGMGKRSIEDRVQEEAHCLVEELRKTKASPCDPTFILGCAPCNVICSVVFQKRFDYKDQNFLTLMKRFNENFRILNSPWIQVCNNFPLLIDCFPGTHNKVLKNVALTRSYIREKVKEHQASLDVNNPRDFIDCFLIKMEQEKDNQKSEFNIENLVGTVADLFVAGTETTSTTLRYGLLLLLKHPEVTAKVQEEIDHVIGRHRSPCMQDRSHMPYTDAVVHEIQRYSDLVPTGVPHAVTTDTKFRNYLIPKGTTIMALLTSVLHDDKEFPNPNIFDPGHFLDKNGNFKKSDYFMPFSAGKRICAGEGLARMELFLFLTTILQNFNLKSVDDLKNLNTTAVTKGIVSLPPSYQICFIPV
Chain of IP (P43119 whole entry): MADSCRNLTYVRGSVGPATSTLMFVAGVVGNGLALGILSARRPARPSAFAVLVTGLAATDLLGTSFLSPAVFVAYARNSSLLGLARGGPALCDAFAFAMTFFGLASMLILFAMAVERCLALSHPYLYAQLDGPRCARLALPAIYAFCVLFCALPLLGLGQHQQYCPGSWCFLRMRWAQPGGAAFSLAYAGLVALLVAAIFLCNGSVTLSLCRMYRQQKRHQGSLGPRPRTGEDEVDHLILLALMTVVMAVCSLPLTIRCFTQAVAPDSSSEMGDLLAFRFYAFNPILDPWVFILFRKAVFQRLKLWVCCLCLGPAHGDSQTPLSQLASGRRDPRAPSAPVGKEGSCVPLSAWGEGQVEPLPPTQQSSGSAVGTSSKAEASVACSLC

Structure (SMILES) | EC50 (EP3v6) | EP3v6 % I.A (EP3v6) | behaviour at EP3 in melanophore platform (EP3v6) | IC50 (CYP 2C8) | off-target liabilities in a wider screen (95 GPCR profile) | half-life [1] | Efficacy (% vs. Iloprost) [95% CI], recombinant IP receptor cAMP (IP) | IC50 (hERG channel) | half-life [2] | Ki (rat IP) | Ki (monkey IP)
O=C(O)COC[C@H]1CC[C@H](COC(=O)N(c2ccccc2)c2ccc(Cl)cc2)CC1 [5c, Sodium 2-(((1r,4r)-4-(((4-Chlorophenyl)(phenyl)carbamoyloxy)methyl)cyclohexyl)methoxy)acetate] | 230 nM | 98% | behaved as EP3 agonists | > 50000 nM | no additional off-target liabilities were observed | > 1 h | 67 [64, 71] % | > 30000 nM | > 1 h | 76 nM | 
O=C(O)COC[C@H]1CC[C@H](COC(=O)N(c2ccccc2)c2cccc(F)c2)CC1 [5g, 2-(((1r,4r)-4-(((3-Fluorophenyl)(phenyl)carbamoyloxy)methyl)cyclohexyl)methoxy)acetic Acid] |  |  | behaved as EP3 agonists | > 50000 nM | no additional off-target liabilities were observed | > 1 h |  | > 30000 nM | > 1 h | 51 nM | 2.6 nM
CC#CCC(C)[C@H](O)/C=C/[C@@H]1[C@H]2C/C(=C/CCCC(=O)O)C[C@H]2C[C@H]1O (some centres unmarked) [iloprost] | 280 nM | 68% |  |  |  |  | 100% |  |  | 1 nM | 1.6 nM
